Assay results published in US9315475B2 (MERCK SHARP & DOHME CORP., priority 2011, dated 2016).

Target: T1, wildtype HIV-1 protease (Human immunodeficiency virus type 1 group M subtype B, UniProt P04585)
T1 construct: the wildtype HIV-1 protease (which was expressed in Escherichia coli); made in house; host or cells: Escherichia coli
Test: Assay for inhibition of microbial expressed HIV protease (Pepcleav)
Format: biochemical
Conditions: wild type HIV-1 protease expressed in E. coli, peptide substrate, pH 5.5; mean of at least two independent experiments; read-out: Pepcleav
Method: Assay for Inhibition of Microbial Expressed HIV Protease (“Pepcleav”)
Studies of the inhibition of the wildtype HIV-1 protease (which was expressed in Escherichia coli) were carried out with a peptide substrate [Val-Ser-Gln-Asn-(βnaphthyl)Ala-Pro-Ile-Val (SEQ ID NO:1)]. The inhibitor is first preincubated with the HIV-1 protease (wild type) enzyme in assay buffer (50 mM sodium acetate, pH 5.5, 100 mM NaCl, and 0.1% BSA) for 30 minutes at room temperature. Substrate is added to 400 micromolar in a total volume of 20 microliters containing 20 picomolar HIV-1 protease (final) and the reaction is incubated for 1 hour at 30° C. The reaction is quenched with the addition of formic acid and indinavir to 0.012% and 150 nM final concentrations, respectively. The product formation is determined after separation of product and substrate on a Zorbax Eclipse XDB-C 18 column connected to an API 4000 mass spectrometer (Applied Biosystems) with multiple reaction monitoring (transitions were 644.5/428.9 and 615.4/422.2 (M1/M3) for product and indinavir respectively). The extent of inhibition of the reaction is determined from the peak area of the products.

**Q.** With `COC(=O)N[C@H](C(=O)Nc1ccccc1CC[C@@H]1CN[C@H](COC(=O)NCc2cccc3ccncc23)CO1)C(c1ccccc1)c1ccccc1` [Example 18, methyl N-[(1S)-1-benzhydryl-2-[[2-[2-[(2R,5S)-5-(8-isoquinolylmethylcarbamoyloxymethyl)morpholin-2-yl]ethyl]phenyl]amino]-2-oxo-ethyl]carbamate] as the molecule, how does the IC50 read?
**A.** 0.028 µM

**Q.** How did the IC50 turn out when `COC(=O)N[C@H](C(=O)Nc1ccccc1CC[C@@H]1CN[C@H](CCCc2ccccc2)CO1)C(c1ccccc1)c1ccccc1` [Example 67, methyl{(1S)-1-(diphenylmethyl)-2-oxo-2-[(2-{2-[(2R,5R)-5-(3-phenylpropyl)morpholin-2-yl]ethyl}phenyl)amino]ethyl}carbamate] was run?
**A.** 0.026 µM

**Q.** For `CCNC(=O)Nc1ccccc1CC[C@@H]1CO[C@H](CCc2ccccc2NC(=O)[C@@H](NC(=O)OC)C(c2ccccc2)c2ccccc2)CN1` [Example 77], which IC50 is on record?
**A.** 0.015 µM

**Q.** `COC(=O)N[C@H](C(=O)Nc1ccccc1CC[C@@H]1CN[C@H](CNC(=O)c2cc(-c3ccccn3)[nH]n2)CO1)C(c1ccccc1)c1ccccc1` [Example 60, methyl N-[(1S)-1-benzhydryl-2-oxo-2-[[2-[2-[(2R,5R)-5-[[[5-(2-pyridyl)-1H-pyrazole-3-carbonyl]amino]methyl]morpholin-2-yl]ethyl]phenyl]amino]ethyl] carbamate] was tested. Which IC50 did it give?
**A.** 0.072 µM

**Q.** Which IC50 does the source give for `COC(=O)N[C@H](C(=O)Nc1ccccc1CC[C@@H]1CN[C@H](CNC(=O)c2[nH]c(=O)ccc2F)CO1)C(c1ccccc1)c1ccccc1` [Example 58, methyl N-[(1S)-1-benzhydryl-2-[[2-[2-[(2R,5R)-5-[[(3-fluoro-6-oxo-1H-pyridine-2-carbonyl)amino]methyl]morpholin-4-ium-2-yl]ethyl]phenyl]amino]-2-oxo-ethyl]carbamate] here?
**A.** 0.066 µM

**Q.** Which IC50 does the source give for `COC(=O)N[C@H](C(=O)Nc1ccccc1CC[C@@H]1CN[C@H](C(=O)Nc2ccccc2)CO1)C(c1ccccc1)c1ccccc1` [Example 7, Nα-(methoxycarbonyl)-β-phenyl-N-(2-{2-[(2R,5S)-5-(phenylcarbamoyl)morpholin-2-yl]ethyl}phenyl)-L-phenylalaninamide] here?
**A.** 0.0008 µM

**Q.** How did the IC50 turn out when `COC(=O)N[C@H](C(=O)Nc1ccccc1CC[C@@H]1CN[C@H](CSc2ccccc2)CO1)C(c1ccccc1)c1ccccc1` [Example 62, Nα-(methoxycarbonyl)-β-phenyl-N-[2-(2-{(2R,5S)-5-[(phenylsulfanyl)methyl]morpholin-2-yl}ethyl)phenyl]-L-phenylalaninamide] was run?
**A.** 0.13 µM

**Q.** `COC(=O)N[C@H](C(=O)Nc1ccccc1CC[C@@H]1CN[C@H](CNC(=O)c2cc3ncccn3n2)CO1)C(c1ccccc1)c1ccccc1` [Example 59, methyl N-[(1S)-1-benzhydryl-2-oxo-2-[[2-[2-[(2R,5R)-5-[(pyrazolo[1,5-a]pyrimidine-2-carbonylamino)methyl]morpholin-2-yl]ethyl]phenyl]amino]ethyl] carbamate] was tested. Which IC50 did it give?
**A.** 0.071 µM

**Q.** How did the IC50 turn out when `N[C@@H](Cc1ccccc1C1CC1)C(=O)Nc1cncc(F)c1CC[C@@H]1CN[C@H](COC(=O)NCC(F)(F)F)CO1` [Example 189, 2-cyclopropyl-N-(5-fluoro-4-{2-[(2R,5S)-5-({[(2,2,2-trifluoroethyl)carbamoyl]oxy}methyl)morpholin-2-yl]ethyl}pyridin-3-yl)-L-phenylalaninamide] was run?
**A.** 1.73 µM

**Q.** `N[C@H](C(=O)Nc1cccc(F)c1CC[C@@H]1CN[C@H](COC(=O)NCC(F)(F)F)CO1)[C@H](c1ccc(F)cc1)c1ccc(OC(F)(F)F)cc1` [Example 231, (βS)-β-(4-fluorophenyl)-N-(3-fluoro-2-{2-[(2R,5S)-5-({[(2,2,2-trifluoroethyl)carbamoyl]oxy}methyl)morpholin-2-yl]ethyl}phenyl)-O-(trifluoromethyl)-L-tyrosinamide] was tested. Which IC50 did it give?
**A.** 0.15 µM

**Q.** With `COC(=O)N[C@H](C(=O)Nc1ccccc1CC[C@@H]1CN[C@H](COC(=O)NC2CCC2)CO1)C(c1ccccc1)c1ccccc1` [Example 23, methyl N-[(1S)-1-benzhydryl-2-[[2-[2-[(2R,5S)-5-(cyclobutylcarbamoyloxymethyl)morpholin-2-yl]ethyl]phenyl]amino]-2-oxo-ethyl]carbamate] as the molecule, how does the IC50 read?
**A.** 0.08 µM

**Q.** `N[C@H](C(=O)Nc1cccc(F)c1CC[C@@H]1CN[C@H](COC(=O)NCC(F)(F)F)CO1)[C@H](c1ccc(F)cc1)c1ccc(Oc2ccccc2)cc1` [Example 230, (βS)-β-(4-fluorophenyl)-N-(3-fluoro-2-{2-[(2R,5S)-5-({[(2,2,2-trifluoroethyl)carbamoyl]oxy}methyl)morpholin-2-yl]ethyl}phenyl)-O-phenyl-L-tyrosinamide] was tested. Which IC50 did it give?
**A.** 0.18 µM

**Q.** For `NC(=O)OC[C@@H]1CO[C@H](CCc2c(F)cncc2NC(=O)[C@@H](N)C(c2ccc(F)cc2)c2ccc(F)cc2)CN1` [Example 119, N-[4-(2-{(2R,5S)-5-[(Carbamoyloxy)methyl]morpholin-2-yl}ethyl)-5-fluoropyridin-3-yl]-4-fluoro-β-(4-fluorophenyl)-L-phenylalaninamide], which IC50 is on record?
**A.** 0.0069 µM

**Q.** With `COC(=O)N[C@H](C(=O)Nc1cnccc1CC[C@@H]1CN[C@H](COC(=O)NCc2ccc(F)cc2)CO1)C(c1ccccc1)c1ccccc1` [Example 33, N-(4-{2-[(2R,5S)-5-({[(4-fluorobenzyl)carbamoyl]oxy}methyl)morpholin-2-yl]ethyl}pyridin-3-yl)-Nα-(methoxycarbonyl)-β-phenyl-L-phenylalaninamide] as the molecule, how does the IC50 read?
**A.** 0.0057 µM

**Q.** Which IC50 does the source give for `COC(=O)N[C@H](C(=O)Nc1ccccc1CC[C@@H]1CN[C@H](CNC(=O)c2cc3ccccc3[nH]2)CO1)C(c1ccccc1)c1ccccc1` [Example 56, methyl N-[(1S)-1-benzhydryl-2-[[2-[2-[(2R,5R)-5-[(1H-indole-2-carbonylamino)methyl]morpholin-2-yl]ethyl]phenyl]amino]-2-oxo-ethyl]carbamate] here?
**A.** 0.034 µM

**Q.** `C[C@H](NC(=O)OC[C@@H]1CO[C@H](COc2c(F)cccc2NC(=O)[C@@H](N)C(c2ccc(F)cc2)c2ccc(F)cc2)CN1)c1ccc(F)cc1` [Example 210, 4-fluoro-N-[3-fluoro-2-({(2S,5S)-5-[({[(1S)-1-(4-fluorophenyl)ethyl]carbamoyl}oxy)methyl]morpholin-2-yl}methoxy)phenyl]-β-(4-fluorophenyl)-L-phenylalaninamide] was tested. Which IC50 did it give?
**A.** 0.013 µM

**Q.** For `CCC[C@@H](c1ccccc1)[C@H](N)C(=O)Nc1cccc(F)c1CC[C@@H]1CN[C@H](COC(=O)NCc2ccc(F)cc2)CO1` [Example 199, (βS)-N-(3-fluoro-2-{2-[(2R,5S)-5-({[(4-fluorobenzyl)carbamoyl]oxy}methyl)morpholin-2-yl]ethyl}phenyl)-β-propyl-L-phenylalaninamide], which IC50 is on record?
**A.** 0.041 µM

**Q.** With `N[C@H](C(=O)Nc1cncc(F)c1CC[C@@H]1CN[C@H](COC(=O)NCCN2CCCC2)CO1)C(c1ccc(F)cc1)c1ccc(F)cc1` [Example 233, 4-fluoro-β-(4-fluorophenyl)-N-(5-fluoro-4-{2-[(2R,5S)-5-({[(2-pyrrolidin-1-ylethyl)carbamoyl]oxy}methyl)morpholin-2-yl]ethyl}pyridin-3-yl)-L-phenylalaninamide] as the molecule, how does the IC50 read?
**A.** 0.11 µM

**Q.** `COC(=O)N[C@H](C(=O)Nc1ccccc1CC[C@@H]1CN[C@H](COC(=O)NCCN(C)C)CO1)C(c1ccccc1)c1ccccc1` [Example 28, methyl N-[(1S)-1-benzhydryl-2-[[2-[2-[(2R,5S)-5-(2-dimethylaminoethylcarbamoyloxymethyl)morpholin-2-yl]ethyl]phenyl]amino]-2-oxo-ethyl]carbamate] was tested. Which IC50 did it give?
**A.** 0.25 µM

**Q.** Which IC50 does the source give for `COC(=O)N[C@H](C(=O)Nc1ncccc1CC[C@@H]1CN[C@H](COC(=O)NCc2ccc(F)cc2)CO1)C(c1ccccc1)c1ccccc1` [Example 32, N-(3-{2-[(2R,5S)-5-({[(4-fluorobenzyl)carbamoyl]oxy}methyl)morpholin-2-yl]ethyl}pyridin-2-yl)-Nα-(methoxycarbonyl)-β-phenyl-L-phenylalaninamide] here?
**A.** 0.021 µM

**Q.** With `CN1CCC(NC(=O)OC[C@@H]2CO[C@H](CCc3c(F)cncc3NC(=O)[C@@H](N)C(c3ccc(F)cc3)c3ccc(F)cc3)CN2)C1` (stereo partly drawn) [Example 229, 4-fluoro-N-(5-fluoro-4-{2-[(2R,5S)-5-({[(1-methylpyrrolidin-3-yl)carbamoyl]oxy}methyl)morpholin-2-yl]ethyl}pyridin-3-yl)-β-(4-fluorophenyl)-L-phenylalaninamide] as the molecule, how does the IC50 read?
**A.** 0.19 µM

**Q.** Which IC50 does the source give for `COCC(=O)Nc1ccccc1CC[C@@H]1CO[C@H](CCc2ccccc2NC(=O)[C@@H](NC(=O)OC)C(c2ccccc2)c2ccccc2)CN1` [Example 70, methyl N-[(1S)-1-benzhydryl-2-[[2-[2-[(2R,5R)-5-[2-[2-[(2-methoxyacetyl)amino]phenyl]ethyl]morpholin-2-yl]ethyl]phenyl]amino]-2-oxo-ethyl]carbamate] here?
**A.** 0.024 µM

**Q.** `COC(=O)N[C@H](C(=O)Nc1ccccc1CC[C@@H]1CN[C@H](C(N)=O)CO1)C(c1ccccc1)c1ccccc1` [Example 11, methyl [(1S)-2-[(2-{2-[(2R,5S)-5-(aminocarbonyl)morpholin-2-yl]ethyl}phenyl)amino]-1-(diphenylmethyl)-2-oxoethyl]carbamate] was tested. Which IC50 did it give?
**A.** 0.08 µM

**Q.** `CCNC(=O)[C@@H]1CO[C@H](CCc2ccccc2NC(=O)[C@@H](NC(=O)OC)C(c2ccccc2)c2ccccc2)CN1` [Example 3, N-(2-{2-[(2R,5S)-5-(ethylcarbamoyl)morpholin-2-yl]ethyl}phenyl)-Nα-(methoxycarbonyl)-β-phenyl-L-phenylalaninamide] was tested. Which IC50 did it give?
**A.** 0.015 µM
